In US20120196899A1, “METHODS AND PRODUCTS FOR TREATING INFLAMMATION” (Rock Creek Pharmaceuticals, Inc., priority 2010, published 2012):
Several values for one entry are separate records, joined by “and”; a condition that tells them apart may be missing. Identical values can stand only once.

Columns and labels:
[1] = Necropsy observations and organ weights, day 15; type: in vivo, Sprague-Dawley rats; conditions: for Organ Weight Brain, Mean / Organ Weight Heart, Mean / Organ Weight Kidneys, Mean / Organ Weight Liver, Mean / Organ Weight Lungs, Mean / Organ Weight Prostate, Mean / Organ Weight Small intestine, Mean / Organ Weight Spleen, Mean / Organ Weight Testes, Mean / Organ Weight Thymus, Mean: male rats; for Organ Weight Brain / Organ Weight Heart / Organ Weight Kidneys / Organ Weight Liver / Organ Weight Lungs / Organ Weight Ovaries/uterus / Organ Weight Small intestine / Organ Weight Spleen / Organ Weight Thymus: female animals, group mean
Protocol: Body weight and food consumption was measured daily for 14 days. On day 15, urine was collected on all surviving animals. The animals were euthanized and bled via cardiac puncture, and blood was collected for analysis. Tissues were collected, weighed, evaluated for gross abnormalities, and stored in 10% neutral-buffered formalin.
On day 15, urine was collected on all surviving animals for urinalysis. The animals were euthanized and bled via cardiac puncture. Blood was collected for hematology, clinical chemistry, and coagulation analysis. Tissues were collected, weighed, and stored in 10% neutral-buffered formalin for possible future analysis.

nAChR α4/β2 = target: T1, nAChR α4/β2 (Homo sapiens, UniProt P17787+P43681); type: cell-based; conditions: 100 μM Ach + 0.3 μM epibatidine; not concentration-dependent, IC50 not determinable
T1 construct: host or cells: HEK293 cells, transient transfection
Protocol: The following three (3) channels were evaluated: • 1. nAChR α3/β4 (encoded by the human CHRNA3 and CHRNB4 gene and stably expressed in CHO cells); • 2. nAChR α4/β2 (CHRNA4 and CHRNB2 gene and transiently expressed in HEK293 cells); and • 3. nAChR α7 (encoded by the human nicotinic α7 gene coexpressed in CHO cells with the chaperone RIC-3 encoded by the human RIC3 gene).
The ability of each test article to act as an agonist, a positive allosteric modulator or antagonist of three nAChR receptor channels was evaluated in the presence of 0.1 atropine. Both test articles were evaluated for responses on each nAChR channel at eight (8) concentrations: 0.3, 1, 3, 10, 30, 100, 300, and 1000 μM (n=4 for each concentration).
HEK293 or CHO cells were transiently or stably transfected with the appropriate human ion channel cDNAs. Stable transfectants were selected by coexpression with the antibiotic-resistance gene(s) incorporated into the expression plasmid(s). […]
For FLIPR TETRA™ assay, cells were plated in 384-well black wall, flat clear bottom microtiter plates (Type: BD Biocoat Poly-D-Lysine Multiwell Cell Culture Plate) at 20,000 to 30,000 cells per well (384-well plate). Cells were incubated at 37° C. overnight or until the cells reached a sufficient density in the wells (near confluent monolayer) to use in fluorescence assays. […]

nAChR α7 = target: T2, nAChR α7 (Homo sapiens, UniProt P36544); assay: nAChR α7 channel agonist assay (FLIPR, with PNU-120596); type: cell-based; conditions: with 10 μM PNU-120596; maximal stimulation not achieved
T2 construct: host or cells: CHO cells
Protocol: Therefore, the assay of agonist activity for either Ach or for the test articles was conducted in the presence of the positive allosteric modulator.

[2] = test system: TNFα-induced NFκB activity; assay: NFκB luciferase assay (inhibition of TNFα-induced NFκB activity) in HEK293 reporter cells; type: cell-based, Human; conditions: HEK293 reporter cells challenged with TNFα for three hours
Protocol: The smokeless tobacco used in these experiments was plain long-leaf Copenhagen tobacco purchased from a local vendor. Crude extract was extracted with methanol and water and clarified by centrifugation and filtration. The alkaloid extract was prepared from sodium hydroxide and methanol extraction, organic phase separation and purification. All treatment samples were prepared as a function of weight (μg/ml), and all samples were diluted in DMSO.
Human […] kidney cells (HEK293) transfected with an NFκB luciferase reporter were challenged with TNFα for three hours, then samples were applied to the challenged cells.

[3] = Group B, 0.1 mg/kg, males, individual animals, 0.1 mg/kg
[4] = Group C, 0.75 mg/kg, females, individual animals, 0.75 mg/kg
[5] = Group C, 0.75 mg/kg, males, individual animals, 0.75 mg/kg
[6] = anatabine 0.1 mg/kg single i.v.
[7] = anatabine 0.75 mg/kg single i.v.

T1 sequence (P17787 26-502): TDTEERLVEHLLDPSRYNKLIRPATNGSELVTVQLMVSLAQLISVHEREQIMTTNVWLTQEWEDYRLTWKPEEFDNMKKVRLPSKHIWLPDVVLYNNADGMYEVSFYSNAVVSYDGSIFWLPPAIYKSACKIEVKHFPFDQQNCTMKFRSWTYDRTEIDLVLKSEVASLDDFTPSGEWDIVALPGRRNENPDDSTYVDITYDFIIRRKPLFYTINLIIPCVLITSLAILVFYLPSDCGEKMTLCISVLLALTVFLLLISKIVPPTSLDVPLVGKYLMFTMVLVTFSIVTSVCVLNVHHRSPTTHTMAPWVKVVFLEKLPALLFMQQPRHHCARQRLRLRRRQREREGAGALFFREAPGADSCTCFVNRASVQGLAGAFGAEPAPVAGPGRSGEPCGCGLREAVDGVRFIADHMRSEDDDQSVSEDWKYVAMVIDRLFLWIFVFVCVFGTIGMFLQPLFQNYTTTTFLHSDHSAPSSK
T1 sequence (P43681 29-627): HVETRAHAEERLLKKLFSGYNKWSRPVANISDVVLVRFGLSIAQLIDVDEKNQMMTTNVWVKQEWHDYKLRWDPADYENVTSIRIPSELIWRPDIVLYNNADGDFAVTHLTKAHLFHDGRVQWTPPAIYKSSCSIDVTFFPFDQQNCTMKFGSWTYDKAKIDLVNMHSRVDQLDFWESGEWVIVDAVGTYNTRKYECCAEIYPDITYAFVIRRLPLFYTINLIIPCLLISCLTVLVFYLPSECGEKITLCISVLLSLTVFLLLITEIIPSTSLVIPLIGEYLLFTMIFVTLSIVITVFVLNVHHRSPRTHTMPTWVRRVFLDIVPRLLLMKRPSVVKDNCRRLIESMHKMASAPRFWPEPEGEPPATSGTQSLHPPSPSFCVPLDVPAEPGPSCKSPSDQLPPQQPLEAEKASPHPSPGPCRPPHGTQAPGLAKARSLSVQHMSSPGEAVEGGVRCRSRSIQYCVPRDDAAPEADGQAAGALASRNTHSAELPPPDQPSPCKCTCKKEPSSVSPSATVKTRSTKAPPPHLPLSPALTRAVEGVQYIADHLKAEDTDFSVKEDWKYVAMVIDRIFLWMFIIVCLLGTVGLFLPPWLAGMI
T2 sequence (P36544 23-502): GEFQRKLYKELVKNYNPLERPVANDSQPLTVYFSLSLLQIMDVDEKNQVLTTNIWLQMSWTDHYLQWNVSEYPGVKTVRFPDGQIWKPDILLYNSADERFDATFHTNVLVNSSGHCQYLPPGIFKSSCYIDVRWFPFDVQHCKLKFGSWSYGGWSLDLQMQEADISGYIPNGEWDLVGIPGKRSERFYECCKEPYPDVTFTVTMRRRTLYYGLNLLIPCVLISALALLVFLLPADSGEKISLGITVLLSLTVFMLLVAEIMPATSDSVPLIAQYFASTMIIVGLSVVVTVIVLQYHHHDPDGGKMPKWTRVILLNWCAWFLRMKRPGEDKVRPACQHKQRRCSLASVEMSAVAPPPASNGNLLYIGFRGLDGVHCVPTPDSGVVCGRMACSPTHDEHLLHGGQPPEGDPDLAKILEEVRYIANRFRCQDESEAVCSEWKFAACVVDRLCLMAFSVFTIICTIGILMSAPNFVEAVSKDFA

Structure (SMILES): C1=CCC(c2cccnc2)NC1 (racemic) [Anatabine, 1,2,3,6-tetrahydro-[2,3′]bipyridinyl]
- Tissue Collection Weights: Thymus ([1]; Group B, 0.1 mg/kg, females, individual animals, 0.1 mg/kg): 0.68 g and 0.59 g and 0.49 g and 0.71 g and 0.73 g
- Tissue Collection Weights: Brain [1, 3]: 2.35 g and 2.16 g and 2.24 g and 2.11 g and 1.88 g
- Tissue Collection Weights: Heart [1, 3]: 1.71 g and 1.59 g and 1.97 g and 1.60 g and 1.85 g
- Tissue Collection Weights: Kidneys [1, 3]: 3.55 g and 3.33 g and 3.70 g and 3.27 g and 3.99 g
- Tissue Collection Weights: Liver [1, 3]: 17.92 g and 15.45 g and 16.98 g and 16.32 g and 17.38 g
- Tissue Collection Weights: Lungs [1, 3]: 2.31 g and 1.77 g and 2.08 g and 1.91 g and 1.83 g
- Tissue Collection Weights: Prostate [1, 3]: 0.72 g and 0.49 g and 0.73 g and 0.53 g and 0.48 g
- Tissue Collection Weights: Small intestine [1, 3]: 0.61 g and 0.96 g and 0.88 g and 0.50 g and 0.35 g
- Tissue Collection Weights: Spleen [1, 3]: 0.91 g and 0.66 g and 0.82 g and 0.93 g and 0.76 g
- Tissue Collection Weights: Testes [1, 3]: 3.69 g and 3.64 g and 3.14 g and 3.35 g and 3.29 g
- Tissue Collection Weights: Thymus [1, 3]: 0.74 g (2×) and 0.76 g and 0.71 g and 0.81 g
- Tissue Collection Weights: Brain [1, 4]: 1.99 g and 1.93 g and 1.73 g and 2.06 g and 1.81 g
- Tissue Collection Weights: Heart [1, 4]: 1.09 g and 1.21 g and 1.23 g and 1.03 g and 0.99 g
- Tissue Collection Weights: Kidneys [1, 4]: 2.08 g and 2.20 g and 2.68 g and 2.36 g
- Tissue Collection Weights: Liver [1, 4]: 10.71 g and 8.65 g and 11.37 g and 10.19 g
- Tissue Collection Weights: Lungs [1, 4]: 1.46 g and 1.39 g and 1.62 g and 1.30 g and 1.49 g
- Tissue Collection Weights: Ovaries/uterus [1, 4]: 0.81 g and 1.50 g and 0.72 g and 1.23 g and 3.65 g
- Tissue Collection Weights: Small intestine [1, 4]: 0.72 g and 0.37 g and 0.85 g and 0.47 g and 1.34 g
- Tissue Collection Weights: Spleen [1, 4]: 0.70 g and 0.65 g (2×) and 0.51 g and 0.49 g
- Tissue Collection Weights: Thymus [1, 4]: 0.56 g and 0.53 g and 0.63 g and 0.52 g and 0.54 g
- Tissue Collection Weights: Brain [1, 5]: 2.01 g and 2.19 g and 2.12 g and 2.00 g and 2.02 g
- Tissue Collection Weights: Heart [1, 5]: 1.52 g and 1.38 g and 1.56 g and 1.39 g and 1.29 g
- Tissue Collection Weights: Kidneys [1, 5]: 3.45 g and 2.77 g and 3.49 g and 3.16 g and 2.89 g
- Tissue Collection Weights: Liver [1, 5]: 14.92 g and 13.91 g and 14.70 g and 14.01 g and 14.94 g
- Tissue Collection Weights: Lungs [1, 5]: 1.86 g and 1.97 g and 1.72 g and 1.95 g and 1.58 g
- Tissue Collection Weights: Prostate [1, 5]: 0.49 g (2×) and 0.65 g and 0.46 g and 0.45 g
- Tissue Collection Weights: Small intestine [1, 5]: 0.54 g and 1.41 g and 0.56 g and 0.41 g and 0.47 g
- Tissue Collection Weights: Spleen [1, 5]: 0.71 g and 0.63 g and 0.79 g and 0.93 g and 0.64 g
- Tissue Collection Weights: Testes [1, 5]: 3.19 g and 3.84 g and 3.03 g and 3.28 g and 2.70 g
- Tissue Collection Weights: Thymus [1, 5]: 1.02 g and 0.52 g and 0.67 g and 0.69 g and 0.47 g
- Organ Weight Brain, Mean [1, 6]: 2.15 g
- Organ Weight Heart, Mean [1, 6]: 1.74 g
- Organ Weight Kidneys, Mean [1, 6]: 3.57 g
- Organ Weight Liver, Mean [1, 6]: 16.81 g
- Organ Weight Lungs, Mean [1, 6]: 1.98 g
- Organ Weight Prostate, Mean [1, 6]: 0.59 g
- Organ Weight Small intestine, Mean [1, 6]: 0.66 g
- Organ Weight Spleen, Mean [1, 6]: 0.82 g
- Organ Weight Testes, Mean [1, 6]: 3.42 g
- Organ Weight Thymus, Mean [1, 6]: 0.75 g
- Organ Weight Brain, Mean [1, 7]: 2.07 g
- Organ Weight Heart, Mean [1, 7]: 1.43 g
- Organ Weight Kidneys, Mean [1, 7]: 3.15 g
- Organ Weight Liver, Mean [1, 7]: 14.50 g
- Organ Weight Lungs, Mean [1, 7]: 1.82 g
- Organ Weight Prostate, Mean [1, 7]: 0.51 g
- Organ Weight Small intestine, Mean [1, 7]: 0.68 g
- Organ Weight Spleen, Mean [1, 7]: 0.74 g
- Organ Weight Testes, Mean [1, 7]: 3.21 g
- Organ Weight Thymus, Mean [1, 7]: 0.67 g
- Organ Weight Brain ([1]; 0.1 mg/kg): 1.86 g
- Organ Weight Heart ([1]; 0.1 mg/kg): 1.13 g
- Organ Weight Kidneys ([1]; 0.1 mg/kg): 2.18 g
- Organ Weight Liver ([1]; 0.1 mg/kg): 10.84 g
- Organ Weight Lungs ([1]; 0.1 mg/kg): 1.41 g
- Organ Weight Ovaries/uterus ([1]; 0.1 mg/kg): 1.14 g
- Organ Weight Small intestine ([1]; 0.1 mg/kg): 0.65 g
- Organ Weight Spleen ([1]; 0.1 mg/kg): 0.65 g
- Organ Weight Thymus ([1]; 0.1 mg/kg): 0.64 g
- Organ Weight Brain ([1]; 0.75 mg/kg): 1.90 g
- Organ Weight Heart ([1]; 0.75 mg/kg): 1.11 g
- Organ Weight Kidneys ([1]; 0.75 mg/kg): 2.30 g
- Organ Weight Liver ([1]; 0.75 mg/kg): 10.42 g
- Organ Weight Lungs ([1]; 0.75 mg/kg): 1.45 g
- Organ Weight Ovaries/uterus ([1]; 0.75 mg/kg): 1.58 g
- Organ Weight Small intestine ([1]; 0.75 mg/kg): 0.75 g
- Organ Weight Spleen ([1]; 0.75 mg/kg): 0.60 g
- Organ Weight Thymus ([1]; 0.75 mg/kg): 0.56 g
- inhibition of receptor activity (nAChR α4/β2): inhibited receptor activity
- agonist activity (nAChR α7): showed agonist activity
- TNFα-induced NFκB-mediated transcription of luciferase [2]: can reduce this transcription to control levels
